Test results as given in ChEMBL document CHEMBL1681648, “Synthesis and in vitro antibacterial activity of oxazolidine LBM-415 analogs as peptide deformylase inhibitors” (2011).
Converted amounts (≈) assume the structure as drawn.

Experiments:
Format in all cases: functional
Staphylococcus aureus = assay: Antimicrobial activity against Staphylococcus aureus 26003 after 24 hrs by agar dilution method; details: Staphylococcus aureus, 26003, 24 h
Streptococcus pneumoniae = assay: Antimicrobial activity against Streptococcus pneumoniae 31002 after 24 hrs by agar dilution method; details: Streptococcus pneumoniae, 31002, 24 h
[1] = Antimicrobial activity against Streptomyces albus 260101 after 24 hrs by agar dilution method; details: Streptomyces albus, 260101, 24 h
Shigella boydii = assay: Antimicrobial activity against Shigella boydii 51313 after 24 hrs by agar dilution method; details: Shigella boydii, 51313, 24 h
Shigella flexneri = assay: Antimicrobial activity against Shigella flexneri 92475 after 24 hrs by agar dilution method; details: Shigella flexneri, 92475, 24 h

CCCC[C@H](CN(O)C=O)C(=O)N1COC[C@H]1C(=O)Nc1ccccc1
MIC (Staphylococcus aureus): 0.39 µg/mL (≈ 1.07 µM)
MIC (Streptococcus pneumoniae): 0.195 µg/mL (≈ 0.537 µM)
MIC [1]: 0.39 µg/mL (≈ 1.07 µM)
MIC (Shigella boydii): > 6.25 µg/mL
MIC (Shigella flexneri): > 6.25 µg/mL

CCCC[C@H](CN(O)C=O)C(=O)N1COC[C@H]1C(=O)Nc1ccc(C)cc1
MIC (Staphylococcus aureus): 0.78 µg/mL (≈ 2.07 µM)
MIC (Streptococcus pneumoniae): 0.195 µg/mL (≈ 0.517 µM)
MIC [1]: 0.78 µg/mL (≈ 2.07 µM)
MIC (Shigella boydii): > 6.25 µg/mL
MIC (Shigella flexneri): > 6.25 µg/mL

CCCC[C@H](CN(O)C=O)C(=O)N1COC[C@H]1C(=O)Nc1ccc(F)cc1
MIC (Staphylococcus aureus): 0.39 µg/mL (≈ 1.02 µM)
MIC (Streptococcus pneumoniae): 0.195 µg/mL (≈ 0.511 µM)
MIC [1]: 0.39 µg/mL (≈ 1.02 µM)
MIC (Shigella boydii): > 6.25 µg/mL
MIC (Shigella flexneri): > 6.25 µg/mL

CCCC[C@H](CN(O)C=O)C(=O)N1COC[C@H]1C(=O)Nc1c(F)cccc1F
MIC (Staphylococcus aureus): 0.39 µg/mL (≈ 0.976 µM)
MIC (Streptococcus pneumoniae): 0.195 µg/mL (≈ 0.488 µM)
MIC [1]: 0.39 µg/mL (≈ 0.976 µM)
MIC (Shigella boydii): > 6.25 µg/mL
MIC (Shigella flexneri): > 6.25 µg/mL

CCCC[C@H](CN(O)C=O)C(=O)N1COC[C@H]1C(=O)Nc1ccc(OC)cc1
MIC (Staphylococcus aureus): 0.39 µg/mL (≈ 0.991 µM)
MIC (Streptococcus pneumoniae): 0.195 µg/mL (≈ 0.496 µM)
MIC [1]: 0.78 µg/mL (≈ 1.98 µM)
MIC (Shigella boydii): > 6.25 µg/mL
MIC (Shigella flexneri): > 6.25 µg/mL

CCCC[C@H](CN(O)C=O)C(=O)N1COC[C@H]1C(=O)Nc1ccc(N2CCOCC2)c(F)c1
MIC (Staphylococcus aureus): 0.78 µg/mL (≈ 1.67 µM)
MIC (Streptococcus pneumoniae): 0.098 µg/mL (≈ 0.21 µM)
MIC [1]: 0.78 µg/mL (≈ 1.67 µM)
MIC (Shigella boydii): > 6.25 µg/mL
MIC (Shigella flexneri): > 6.25 µg/mL

CCCC[C@H](CN(O)C=O)C(=O)N1COC[C@H]1C(=O)Nc1ccc(N2CCOCC2)c(Cl)c1
MIC (Staphylococcus aureus): 0.39 µg/mL (≈ 0.808 µM)
MIC (Streptococcus pneumoniae): 0.098 µg/mL (≈ 0.203 µM)
MIC [1]: 0.39 µg/mL (≈ 0.808 µM)
MIC (Shigella boydii): 6.25 µg/mL (≈ 12.9 µM)
MIC (Shigella flexneri): 6.25 µg/mL (≈ 12.9 µM)

CCCC[C@H](CN(O)C=O)C(=O)N1COC[C@H]1C(=O)Nc1ccc(N2CCOCC2)cc1
MIC (Staphylococcus aureus): 1.56 µg/mL (≈ 3.48 µM)
MIC (Streptococcus pneumoniae): 0.39 µg/mL (≈ 0.87 µM)
MIC [1]: 0.78 µg/mL (≈ 1.74 µM)
MIC (Shigella boydii): 6.25 µg/mL (≈ 13.9 µM)
MIC (Shigella flexneri): > 6.25 µg/mL

CCCC[C@H](CN(O)C=O)C(=O)N1COC[C@H]1C(=O)Nc1ccc(F)cn1
MIC (Staphylococcus aureus): 0.78 µg/mL (≈ 2.04 µM)
MIC (Streptococcus pneumoniae): 0.098 µg/mL (≈ 0.256 µM)
MIC [1]: 0.39 µg/mL (≈ 1.02 µM)
MIC (Shigella boydii): 3.13 µg/mL (≈ 8.19 µM)
MIC (Shigella flexneri): 3.13 µg/mL (≈ 8.19 µM)

CCCC[C@H](CN(O)C=O)C(=O)N1COC[C@H]1C(=O)N[C@@H](C)c1ccccc1
MIC (Staphylococcus aureus): 1.56 µg/mL (≈ 3.99 µM)
MIC (Streptococcus pneumoniae): 0.195 µg/mL (≈ 0.498 µM)
MIC [1]: 1.56 µg/mL (≈ 3.99 µM)
MIC (Shigella boydii): > 6.25 µg/mL
MIC (Shigella flexneri): > 6.25 µg/mL

CCCC[C@H](CN(O)C=O)C(=O)N1COC[C@H]1C(=O)NCc1ccccc1
MIC (Staphylococcus aureus): 0.78 µg/mL (≈ 2.07 µM)
MIC (Streptococcus pneumoniae): 0.78 µg/mL (≈ 2.07 µM)
MIC [1]: 1.56 µg/mL (≈ 4.13 µM)
MIC (Shigella boydii): > 6.25 µg/mL
MIC (Shigella flexneri): > 6.25 µg/mL

CCCC[C@H](CN(O)C=O)C(=O)N1CO[C@H](C)[C@H]1C(=O)Nc1ccc(C)cc1
MIC (Staphylococcus aureus): 1.56 µg/mL (≈ 3.99 µM)
MIC (Streptococcus pneumoniae): 0.098 µg/mL (≈ 0.25 µM)
MIC [1]: 0.78 µg/mL (≈ 1.99 µM)
MIC (Shigella boydii): > 6.25 µg/mL
MIC (Shigella flexneri): > 6.25 µg/mL

CCCC[C@H](CN(O)C=O)C(=O)N1CO[C@H](C)[C@H]1C(=O)Nc1ccc(F)cc1
MIC (Staphylococcus aureus): 1.56 µg/mL (≈ 3.95 µM)
MIC (Streptococcus pneumoniae): 0.195 µg/mL (≈ 0.493 µM)
MIC [1]: 0.78 µg/mL (≈ 1.97 µM)
MIC (Shigella boydii): 3.13 µg/mL (≈ 7.92 µM)
MIC (Shigella flexneri): > 6.25 µg/mL

CCCC[C@H](CN(O)C=O)C(=O)N1CO[C@H](C)[C@H]1C(=O)Nc1ccc(N2CCOCC2)c(F)c1
MIC (Staphylococcus aureus): 0.78 µg/mL (≈ 1.62 µM)
MIC (Streptococcus pneumoniae): 0.195 µg/mL (≈ 0.406 µM)
MIC [1]: 1.56 µg/mL (≈ 3.25 µM)
MIC (Shigella boydii): > 6.25 µg/mL
MIC (Shigella flexneri): > 6.25 µg/mL

CCCC[C@H](CN(O)C=O)C(=O)N1CO[C@H](C)[C@H]1C(=O)Nc1ccc(N2CCOCC2)c(Cl)c1
MIC (Staphylococcus aureus): 0.78 µg/mL (≈ 1.57 µM)
MIC (Streptococcus pneumoniae): 0.098 µg/mL (≈ 0.197 µM)
MIC [1]: 0.39 µg/mL (≈ 0.785 µM)
MIC (Shigella boydii): > 6.25 µg/mL
MIC (Shigella flexneri): > 6.25 µg/mL

CCCC[C@H](CN(O)C=O)C(=O)N1CO[C@H](C)[C@H]1C(=O)Nc1ccc(F)cn1
MIC (Staphylococcus aureus): 1.56 µg/mL (≈ 3.94 µM)
MIC (Streptococcus pneumoniae): 0.39 µg/mL (≈ 0.984 µM)
MIC [1]: 0.39 µg/mL (≈ 0.984 µM)
MIC (Shigella boydii): 3.13 µg/mL (≈ 7.9 µM)
MIC (Shigella flexneri): > 6.25 µg/mL

CCCC[C@H](CN(O)C=O)C(=O)N1COC[C@H]1C(=O)Nc1ccc(F)c[n+]1[O-]
MIC (Staphylococcus aureus): 0.78 µg/mL (≈ 1.96 µM)
MIC (Streptococcus pneumoniae): 0.195 µg/mL (≈ 0.489 µM)
MIC [1]: 0.78 µg/mL (≈ 1.96 µM)
MIC (Shigella boydii): 3.13 µg/mL (≈ 7.86 µM)
MIC (Shigella flexneri): > 6.25 µg/mL

CCCC[C@H](CN(O)C=O)C(=O)N1CO[C@H](C)[C@H]1C(=O)Nc1ccc(F)c[n+]1[O-]
MIC (Staphylococcus aureus): 1.56 µg/mL (≈ 3.78 µM)
MIC (Streptococcus pneumoniae): 0.195 µg/mL (≈ 0.473 µM)
MIC [1]: 0.78 µg/mL (≈ 1.89 µM)
MIC (Shigella boydii): > 6.25 µg/mL
MIC (Shigella flexneri): > 6.25 µg/mL

CCCC[C@H](CN(O)C=O)C(=O)N1CCC[C@H]1C(=O)Nc1ccc(F)c[n+]1[O-]
MIC (Staphylococcus aureus): 0.39 µg/mL (≈ 0.984 µM)
MIC (Streptococcus pneumoniae): 0.195 µg/mL (≈ 0.492 µM)
MIC [1]: 0.39 µg/mL (≈ 0.984 µM)
MIC (Shigella boydii): 6.25 µg/mL (≈ 15.8 µM)
MIC (Shigella flexneri): > 6.25 µg/mL
